US20030105115A1, “Novel pyridopyrimidines and uses thereof” (priority 2001, published 2003)

Experiment: Hydroxyapatite assay (hydroxyapatite adsorption chromatography, bone-targeting potential)
Format: physicochemical
Conditions: corrected retention K=(retention time-void time)/void on TSK-Gel HA 1000 HPLC column; linear gradient 10 mM to 500 mM sodium phosphate, 0.15 N NaCl, pH 6.8
Text: Hydroxyapatite is the principal mineral component of bone. Hydroxyapatite adsorption chromatography is used as an assay to evaluate the bone-targeting potential of both individual bone-targeting moieties (“monomers”) and of pharmaceuticals incorporating bone-targeting groups.
The rentention time of the compound is expressed in terms of K=(retention time-void time)/void. This K value is corrected using two reference compounds to correct from inter-column and inter-system variation to obtain a K′ value.
Reference Compounds: K′ values were determined for known bone targeted compounds, the bisphosphonate, alendronate and tetracycline.

K′ value: 3.7
Compound: NCCCC(O)(P(=O)(O)O)P(=O)(O)O [Alendronate, alendronate]
